≈ marks a conversion by molar mass, not a printed value. Read-outs that look alike come from different tables or passages of the source. Blank lines part the entries; values can stand above or below the molecule they belong to.
Key:
Assay in all cases: MIC/MBC antibiotic sensitivity (CLSI)
Format in all cases: cell-based
[1] = tested on: Burkholderia cenocepacia (CBC 031)
Method: (§1) The new compounds of the invention were synthesized following the general method of preparation (Tetrahedron, 2001, 57, 1671-1675), from the reaction between an intermediary compound of the acyl thiourea and HgCl2 in presence of trimethylamine. The products were adequately characterized regarding its chemistry. The antibacterial activity of the new compounds was assayed against two Gram-positive reference strains: Staphylococcus aureus (ATCC6538) and Bacillus cereus (ATCC10876), a fermenting Gram-negative strain: Escherichia coli (ATCC25922), and 26 non-fermenting Gram-negative isolates, including 3 reference strains: Pseudomonas aeruginosa (PAO1), Bordetella bronchiseptica (9.73H+), and Inquilinus limosus (DSM16000), and 23 isolates recovered from patients suffering from cystic fibrosis, including one Achromobacter xylosoxidans isolate, and 22 isolates belonging to the Burkholderia cepacia complex. The later were selected because they presented resistance to a high number of antimicrobial compounds, among a panel of 125 clinical isolates previously analyzed for its resistance against 17 antimicrobial compounds (1,2). The antibiotic sensitivity studies were performed by applying two quantitative methods which allow to determine the minimum inhibitory concentration (MIC) and the minimum bactericidal concentration (MBC).
(§2) The compounds obtained in Examples 1 and 2 were assayed against 23 isolates recovered from the sputum of patients suffering from cystic fibrosis being treated at the Sor Maria Ludovica Children Hospital (La Plata, Buenos Aires, Argentina). Nineteen of these isolates were selected for being highly resistant to most of the antimicrobial agents of clinical use from a panel of 125 isolates previously characterized in Martina et al. (1). Reference strains were also included: Gram (+) bacteria: B. cereus and S. aureus, fermenting Gram (−) bacteria: E. coli, and non-fermenting Gram (−) bacteria: Inquilinus limosus (DSM16000), B. bronchiseptica, and Pseudomonas aeruginosa (PAO1). The antibiotic sensitivity studies were performed applying two quantitative methods which allow to determine the minimum inhibitory concentration (MIC) and the minimum bactericidal concentration (MBC) according to the criteria established by the Clinical and Laboratory Standards Institute (CLSI) (4). For comparative purposes, three antibiotics commonly used in the treatment of pulmonary infections in cystic fibrosis patients were included in the study: tobramycin, ceftazidime and meropenem.

[2] = tested on: Burkholderia multivorans (CBC 019)
Method: as §1, §2

[3] = tested on: Burkholderia seminalis (CBC 042)
Method: as §1, §2

[4] = tested on: Escherichia coli (ATCC25922); conditions: for MBC / MIC: Escherichia coli, E. coli (ATCC25922); for MBC: read-out: MBC; for MIC: read-out: MIC
Method: as §1, §2

[5] = tested on: Burkholderia cenocepacia (CBC 029)
Method: as §1, §2

[6] = tested on: Burkholderia cenocepacia (CBC 032)
Method: as §1, §2

[7] = tested on: Burkholderia cenocepacia (CBC 023)
Method: as §1, §2

[8] = tested on: Burkholderia cenocepacia (CBC 033)
Method: as §1, §2

[9] = tested on: Burkholderia cenocepacia (CBC 036)
Method: as §1, §2

[10] = tested on: Staphylococcus aureus (ATCC6538); conditions: for MBC / MIC: Staphylococcus aureus, S. aureus (ATCC6538); for MBC: read-out: MBC; for MIC: read-out: MIC
Method: as §1, §2

[11] = tested on: Burkholderia cenocepacia (CBC 035)
Method: as §1, §2

[12] = tested on: Burkholderia multivorans (CBC 020)
Method: as §1, §2

[13] = tested on: Inquilinus limosus (DSM16000)
Method: as §1, §2

[14] = tested on: Burkholderia multivorans (CBC 015)
Method: as §1, §2

[15] = tested on: Burkholderia cepacia (CBC 011)
Method: as §1, §2

[16] = tested on: Burkholderia cepacia (CBC 010)
Method: as §1, §2

B. contaminans (HNBC001) = tested on: B. contaminans (HNBC001)
Method: as §1, §2

[17] = tested on: Burkholderia multivorans (CBC 021)
Method: as §1, §2

[18] = tested on: Burkholderia multivorans (CBC 018)
Method: as §1, §2

[19] = tested on: Burkholderia seminalis (CBC 040)
Method: as §1, §2

[20] = tested on: Pseudomonas aeruginosa (PAO1); conditions: Pseudomonas aeruginosa, P. aeruginosa (PAO1); for MBC: read-out: MBC; for MIC: read-out: MIC
Method: as §1, §2

[21] = tested on: Burkholderia cenocepacia (HE001)
Method: as §1, §2

[22] = tested on: Burkholderia cenocepacia (CBC 024)
Method: as §1, §2

[23] = tested on: Bordetella bronchiseptica (9.73H+); conditions: B. bronchiseptica (9.73H+); for MBC: read-out: MBC; for MIC: read-out: MIC
Method: as §1, §2

[24] = Tobramucin, CLSI criteria, read-out: MIC (R/I/S category)

MIC ([1]; Burkholderia cenocepacia, Tobramucin, CLSI criteria, B. cenocepacia (CBC 031), read-out: MIC (R/I/S category)): > 16 µg/mL
MIC ([2]; Burkholderia multivorans, Tobramucin, CLSI criteria, B. multivorans (CBC 019), read-out: MIC (R/I/S category)): > 16 µg/mL
MIC ([3]; Burkholderia seminalis, Tobramucin, CLSI criteria, B. seminalis (CBC 042), read-out: MIC (R/I/S category)): > 16 µg/mL
MIC [4]: 15.6 µg/mL (≈ 33.4 µM)
MIC ([5]; Burkholderia cenocepacia, Tobramucin, CLSI criteria, B. cenocepacia (CBC 029), read-out: MIC (R/I/S category)): > 16 µg/mL
MIC ([6]; Burkholderia cenocepacia, Tobramucin, CLSI criteria, B. cenocepacia (CBC 032), read-out: MIC (R/I/S category)): > 16 µg/mL
MIC ([7]; Burkholderia cenocepacia, Tobramucin, CLSI criteria, B. cenocepacia (CBC 023), read-out: MIC (R/I/S category)): > 16 µg/mL
MIC ([8]; Burkholderia cenocepacia, Tobramucin, CLSI criteria, B. cenocepacia (CBC 033), read-out: MIC (R/I/S category)): > 16 µg/mL
MIC ([9]; Burkholderia cenocepacia, Tobramucin, CLSI criteria, B. cenocepacia (CBC 036), read-out: MIC (R/I/S category)): > 16 µg/mL
MIC [10]: 1.95 µg/mL (≈ 4.17 µM)
MIC ([11]; Burkholderia cenocepacia, Tobramucin, CLSI criteria, B. cenocepacia (CBC 035), read-out: MIC (R/I/S category)): > 16 µg/mL
MIC ([12]; Burkholderia multivorans, Tobramucin, CLSI criteria, B. multivorans (CBC 020), read-out: MIC (R/I/S category)): > 16 µg/mL
MIC [13, 24]: > 16 µg/mL
MIC ([14]; Burkholderia multivorans, Tobramucin, CLSI criteria, B. multivorans (CBC 015), read-out: MIC (R/I/S category)): > 16 µg/mL
MIC ([15]; Burkholderia cepacia, Tobramucin, CLSI criteria, B. cepacia (CBC 011), read-out: MIC (R/I/S category)): > 16 µg/mL
MIC ([16]; Burkholderia cepacia, Tobramucin, CLSI criteria, B. cepacia (CBC 010), read-out: MIC (R/I/S category)): > 16 µg/mL
MIC (B. contaminans (HNBC001); [24]): > 16 µg/mL
MIC ([17]; Burkholderia multivorans, Tobramucin, CLSI criteria, B. multivorans (CBC 021), read-out: MIC (R/I/S category)): > 16 µg/mL
MIC ([18]; Burkholderia multivorans, Tobramucin, CLSI criteria, B. multivorans (CBC 018), read-out: MIC (R/I/S category)): > 16 µg/mL
MIC ([19]; Burkholderia seminalis, Tobramucin, CLSI criteria, B. seminalis (CBC 040), read-out: MIC (R/I/S category)): > 16 µg/mL
MIC [20]: 1.95 µg/mL (≈ 4.17 µM)
MIC ([21]; Burkholderia cenocepacia, Tobramucin, CLSI criteria, B. cenocepacia (HE001), read-out: MIC (R/I/S category)): > 16 µg/mL
MIC ([22]; Burkholderia cenocepacia, Tobramucin, CLSI criteria, B. cenocepacia (CBC 024), read-out: MIC (R/I/S category)): > 16 µg/mL
MIC [23]: 62.5 µg/mL (≈ 134 µM)
SMILES: NC[C@H]1O[C@H](O[C@H]2[C@H](O)[C@@H](O[C@H]3O[C@H](CO)[C@@H](O)[C@H](N)[C@H]3O)[C@H](N)C[C@@H]2N)[C@H](N)C[C@@H]1O [Tobramucin, tobramycin]
MBC [4]: 15.6 µg/mL (≈ 33.4 µM)
MBC [10]: 1.95 µg/mL (≈ 4.17 µM)
MBC [20]: 1.95 µg/mL (≈ 4.17 µM)
MBC [23]: 62.5 µg/mL (≈ 134 µM)

MIC ([1]; Burkholderia cenocepacia (CBC 031), read-out: MIC): 31.2 µg/mL (≈ 47.1 µM)
MIC ([2]; Burkholderia multivorans (CBC 019), read-out: MIC): 66.4 µg/mL (≈ 100 µM)
MIC ([3]; Burkholderia seminalis (CBC 042), read-out: MIC): 33.2 µg/mL (≈ 50 µM)
MIC [4]: 66.4 µg/mL (≈ 100 µM)
MIC ([5]; Burkholderia cenocepacia (CBC 029), read-out: MIC): > 133 µg/mL
MIC ([6]; Burkholderia cenocepacia (CBC 032), read-out: MIC): 31.2 µg/mL (≈ 47.1 µM)
MIC ([7]; Burkholderia cenocepacia (CBC 023), read-out: MIC): 66.4 µg/mL (≈ 100 µM)
MIC ([8]; Burkholderia cenocepacia (CBC 033), read-out: MIC): 133 µg/mL (≈ 200 µM)
MIC ([9]; Burkholderia cenocepacia (CBC 036), read-out: MIC): 66.4 µg/mL (≈ 100 µM)
MIC [10]: 7.81 µg/mL (≈ 11.8 µM)
MIC ([11]; Burkholderia cenocepacia (CBC 035), read-out: MIC): 66.4 µg/mL (≈ 100 µM)
MIC ([12]; Burkholderia multivorans (CBC 020), read-out: MIC): 66.4 µg/mL (≈ 100 µM)
MIC ([13]; read-out: MIC): 61.2 µg/mL (≈ 92.2 µM)
MIC ([14]; Burkholderia multivorans (CBC 015), read-out: MIC): 66.4 µg/mL (≈ 100 µM)
MIC ([15]; Burkholderia cepacia (CBC 011), read-out: MIC): 66.4 µg/mL (≈ 100 µM)
MIC ([16]; Burkholderia cepacia (CBC 010), read-out: MIC): 133 µg/mL (≈ 200 µM)
MIC (B. contaminans (HNBC001); read-out: MIC): 15.6 µg/mL (≈ 23.5 µM)
MIC ([17]; Burkholderia multivorans (CBC 021), read-out: MIC): 66.4 µg/mL (≈ 100 µM)
MIC ([18]; Burkholderia multivorans (CBC 018), read-out: MIC): 66.4 µg/mL (≈ 100 µM)
MIC ([19]; Burkholderia seminalis (CBC 040), read-out: MIC): 61.2 µg/mL (≈ 92.2 µM)
MIC [20]: 33.2 µg/mL (≈ 50 µM)
MIC ([21]; Burkholderia cenocepacia (HE001), read-out: MIC): 61.2 µg/mL (≈ 92.2 µM)
MIC ([22]; Burkholderia cenocepacia (CBC 024), read-out: MIC): 66.4 µg/mL (≈ 100 µM)
MIC [23]: 16.6 µg/mL (≈ 25 µM)
SMILES: O=C(NC(=Nc1c(Br)cc(F)cc1Br)Nc1c(F)cc(F)cc1Br)C12CC3CC(CC(C3)C1)C2 [H-DBF, N—(N-(2-bromo-4,6-difluorophenyl)-N′-(2,6-dibromo-4-fluorophenyl)carbamimidoyl) adamantane-1-carboxamide]
MBC ([1]; Burkholderia cenocepacia (CBC 031), read-out: MBC): 62.5 µg/mL (≈ 94.1 µM)
MBC ([2]; Burkholderia multivorans (CBC 019)): 132 µg/mL (≈ 199 µM)
MBC ([3]; Burkholderia seminalis (CBC 042)): 66.4 µg/mL (≈ 100 µM)
MBC [4]: 66.4 µg/mL (≈ 100 µM)
Selectivity Index (SI) ([4]; ratio IC50 (THP-I) / MIC for E. coli): 2
MBC ([5]; Burkholderia cenocepacia (CBC 029), read-out: MBC): > 133 µg/mL
MBC ([6]; Burkholderia cenocepacia (CBC 032), read-out: MBC): 62.5 µg/mL (≈ 94.1 µM)
MBC ([7]; Burkholderia cenocepacia (CBC 023)): 132 µg/mL (≈ 199 µM)
MBC ([8]; Burkholderia cenocepacia (CBC 033), read-out: MBC): > 133 µg/mL
MBC ([9]; Burkholderia cenocepacia (CBC 036), read-out: MBC): 132 µg/mL (≈ 199 µM)
MBC [10]: 66.4 µg/mL (≈ 100 µM)
Selectivity Index (SI) ([10]; ratio IC50 (THP-I) / MIC against S. aureus): 17
MBC ([11]; Burkholderia cenocepacia (CBC 035), read-out: MBC): 132 µg/mL (≈ 199 µM)
MBC ([12]; Burkholderia multivorans (CBC 020)): 133 µg/mL (≈ 200 µM)
MBC ([14]; Burkholderia multivorans (CBC 015), read-out: MBC): 132 µg/mL (≈ 199 µM)
MBC ([15]; Burkholderia cepacia (CBC 011)): > 132 µg/mL
MBC ([16]; Burkholderia cepacia (CBC 010)): > 132 µg/mL
MBC (B. contaminans (HNBC001)): 31.2 µg/mL (≈ 47.1 µM)
MBC ([17]; Burkholderia multivorans (CBC 021)): > 132 µg/mL
MBC ([18]; Burkholderia multivorans (CBC 018), read-out: MBC): > 132 µg/mL
MBC ([19]; Burkholderia seminalis (CBC 040)): > 61.2 µg/mL
MBC [20]: > 133 µg/mL
MBC ([21]; Burkholderia cenocepacia (HE001)): > 61.2 µg/mL
MBC ([22]; Burkholderia cenocepacia (CBC 024), read-out: MBC): 132 µg/mL (≈ 199 µM)
MBC [23]: 66.5 µg/mL (≈ 100 µM)
